Here are results for three compounds from paper PMC4688006 (Leukemia & lymphoma, 2015).

Usually AUC(0-inf) stands for the area under the concentration-time curve extrapolated to infinity. A lower AUC(0-inf) goes with low exposure. Usually AUC(0-t) stands for the area under the concentration-time curve up to a stated or last time point. Read a low AUC(0-t) as low exposure. The Cmax is the highest concentration seen after dosing. As usually defined, the half-life is the time in which the quantity being followed falls by half.

For series [1], the system named is patients with AML. The note with it: cited from earlier work; for CR rates: randomized phase III clinical trials.
A short description of series [2]: Decitabine plasma pharmacokinetics. In kind it is in vivo, human. The note with it: for AUC(0-inf) / AUC(0-t) / Cmax: intravenous; for AUC(0-inf): Mean AUCinf (SD); for AUC(0-t): Mean AUCt (SD); for Cmax: Mean Cmax (SD).
Series [3] can be described thus: Vorinostat serum pharmacokinetics. The note with it: for AUC(0-inf) / AUC(0-t) / Cmax / half-life: human, oral; for AUC(0-inf): Mean AUCinf (SD); for AUC(0-t): Mean AUCt (SD); for Cmax: Mean Cmax (SD); for half-life: Mean t½ (SD). In kind it is in vivo, human.
Series [4] relates to patients with AML and/or MDS. The note with it: cited from earlier work.
[5] abbreviates: Concurrent schedule: decitabine 20 mg/m^2/day (n = 6), Day 1, cycle 1.
Setting [6] is: Concurrent schedule: decitabine 20 mg/m^2/day (n = 6), Day 5, cycle 1.
Setting [7] is: Sequential schedule: decitabine 20 mg/m^2/day (n = 3), Day 1, cycle 1.
[8] abbreviates: Sequential schedule: decitabine 20 mg/m^2/day (n = 3), Day 5, cycle 1.
Where [9] appears, read: human, 20 mg/m^2/day, Concurrent schedule: decitabine 20 mg/m^2/day (n = 6), Day 1, cycle 1.
Setting [10] is: human, 20 mg/m^2/day, Concurrent schedule: decitabine 20 mg/m^2/day (n = 6), Day 5, cycle 1.
The mark [11] stands for this setting: human, 20 mg/m^2/day, Sequential schedule: decitabine 20 mg/m^2/day (n = 3), Day 1, cycle 1.
[12] abbreviates: human, 20 mg/m^2/day, Sequential schedule: decitabine 20 mg/m^2/day (n = 3), Day 5, cycle 1.
Where [13] appears, read: Concurrent schedule, 100 mg bid days 1–21, Day 15 (n = 1).
[14] abbreviates: 100 mg, Concurrent schedule, 100 mg bid days 1–21, Day 4 (n = 3).
Setting [15] is: 100 mg, Concurrent schedule, 100 mg bid days 1–21, Day 15 (n = 1).
Setting [16] is: 100 mg, Sequential schedule, 100 mg bid days 6–21 (n = 4), day 9 of cycle 1.
Setting [17] is: 200 mg, Concurrent schedule, 200 mg bid days 1–21, Day 4 (n = 10).
Where [18] appears, read: 200 mg, Concurrent schedule, 200 mg bid days 1–21, Day 15 (n = 7).
The mark [19] stands for this setting: 200 mg, Concurrent schedule, 200 mg tid days 1–14, Day 4 (n = 7).
Setting [20] is: 200 mg, Sequential schedule, 200 mg bid days 6–21 (n = 4), day 9 of cycle 1.
The mark [21] stands for this setting: 200 mg, Sequential schedule, 200 mg tid days 6–21 (n = 8), day 9 of cycle 1.

As to `Nc1ncn([C@@H]2O[C@H](CO)[C@@H](O)[C@H]2O)c(=O)n1` [azacitidine], the CR rates in series [1] is reported as 9–18%.

On to `Nc1ncn([C@H]2C[C@H](O)[C@@H](CO)O2)c(=O)n1` [decitabine, 5-aza-2’-deoxycytidine], for which the “Mean CL (SD)” value in series [2] (setting [5]) was 202.8 (153.7) L/h/m^2; in series [2] (setting [6]) it was 139.6 (55.1) L/h/m^2; in series [2] (setting [7]), 254.8 (134.3) L/h/m^2; in series [2] (setting [8]), 226.2 (121.6) L/h/m^2. Also, the “Mean t^1/2 (SD)” value is on record as 0.36 (0.12) h in series [2] (setting [5]), 0.40 (0.17) h in series [2] (setting [6]), 0.36 (0.05) h in series [2] (setting [7]) and 0.42 (0.18) h in series [2] (setting [8]). The “Mean Cmax (SD)” value in series [2] (setting [8]) was 129.9 (87.1) ng/mL. Besides, the AUC(0-inf) came to 152 ng·h/mL in series [2] (setting [9]), 170 ng·h/mL in series [2] (setting [10]), 105 ng·h/mL in series [2] (setting [11]) and 111 ng·h/mL in series [2] (setting [12]). The AUC(0-t) in series [2] (setting [9]) was determined as 149 ng·h/mL; in series [2] (setting [10]) it was 166 ng·h/mL; in series [2] (setting [11]), 102 ng·h/mL; in series [2] (setting [12]) it was 107 ng·h/mL. Moreover, the Cmax in series [2] (setting [9]) amounted to 193 ng/mL; in series [2] (setting [10]) it was 236 ng/mL; in series [2] (setting [11]), 137 ng/mL. This compound displayed a half-life in series [2] (human, iv, 20 mg/m^2/day) of approximately 0.333 h. In series [1], the CR rates is recorded as 9–18%. Also, the “overall response rates (ORRs)” value in series [1] (single agent, three multicenter trials (two phase II, one phase III)) was 25–30%. Moreover, the “complete response [CR] rate” value in series [1] (single agent, three multicenter trials) is 13–25%.

`O=C(CCCCCCC(=O)Nc1ccccc1)NO` [vorinostat, suberoylanilide hydroxamic acid]: the “Mean CL/F (SD)” value in series [3] (Concurrent schedule, 100 mg bid days 1–21, Day 4 (n = 3)) is on record as 4.35 (1.26) L/min; in series [3] (setting [13]), 2.74 L/min; in series [3] (Concurrent schedule, 200 mg bid days 1–21, Day 4 (n = 10)) it was 4.02 (1.30) L/min; in series [3] (Concurrent schedule, 200 mg bid days 1–21, Day 15 (n = 7)), 4.70 (2.45) L/min; in series [3] (Concurrent schedule, 200 mg tid days 1–14, Day 4 (n = 7)), 2.86 (0.81) L/min; in series [3] (Sequential schedule, 100 mg bid days 6–21 (n = 4), day 9 of cycle 1), 4.80 (0.79) L/min. The “Mean CL/F (SD)” value is 5.57 (5.26) L/min in series [3] (Sequential schedule, 200 mg bid days 6–21 (n = 4), day 9 of cycle 1) and 5.89 (4.48) L/min in series [3] (Sequential schedule, 200 mg tid days 6–21 (n = 8), day 9 of cycle 1). In addition, the “Mean Cmax (SD)” value in series [3] (setting [13]) is recorded as 226.3 ng/mL. In addition, the AUC(0-inf) in series [3] (setting [14]) stood at 407 ng·h/mL; in series [3] (setting [15]), 609 ng·h/mL; in series [3] (setting [16]), 352 ng·h/mL; in series [3] (setting [17]), 930 ng·h/mL; in series [3] (setting [18]), 1010 ng·h/mL; in series [3] (setting [19]) it was 1240 ng·h/mL. Further, the area under the curve AUC(0-inf) in series [3] (setting [20]) amounted to 974 ng·h/mL; in series [3] (setting [21]), 910 ng·h/mL. The AUC(0-t) in series [3] (setting [14]) came out at 400 ng·h/mL; in series [3] (setting [15]), 608 ng·h/mL; in series [3] (setting [16]) it was 276 ng·h/mL; in series [3] (setting [17]), 734 ng·h/mL; in series [3] (setting [18]), 778 ng·h/mL; in series [3] (setting [19]), 1060 ng·h/mL. Further, the AUC(0-t) in series [3] (setting [20]) was found to be 556 ng·h/mL; in series [3] (setting [21]), 743 ng·h/mL. Moreover, the Cmax in series [3] (setting [14]) is 151 ng/mL; in series [3] (setting [16]) it was 117 ng/mL; in series [3] (setting [17]), 252 ng/mL; in series [3] (setting [18]), 246 ng/mL; in series [3] (setting [19]), 353 ng/mL; in series [3] (setting [20]), 126 ng/mL. For the same compound, the peak level in series [3] (setting [21]) (Cmax) was 263 ng/mL. In addition, the half-life in series [3] (setting [14]) is 1.04 h; in series [3] (setting [15]) it was 0.62 h; in series [3] (setting [18]) it was 2.34 h; in series [3] (setting [19]), 2.68 h; in series [3] (setting [20]), 3.34 h; in series [3] (setting [21]), 1.65 h. Also, the MTD in series [4] (for 14 consecutive days every 21 days) is listed as 200 mg bid or 250 mg tid. Further, the “responses (CR and/or CRi)” value in series [4] (single agent) is 4.5–10%.
